Legend:
[1] = molecular target: T1, Serine/threonine-protein kinase B-raf (Homo sapiens, UniProt P15056, V600E); assay: Inhibition of B-Raf V600E mutant (unknown origin) assessed as MEK1 phosphorylation using MEK1-Avitag as substrate after 1 hr by HTRF assay
[2] = molecular target: T2, Serine/threonine-protein kinase B-raf (Homo sapiens, UniProt P15056); assay: Inhibition of wild type B-Raf (unknown origin) assessed as MEK1 phosphorylation using MEK1-Avitag as substrate after 1 hr by HTRF assay
MIA PaCa-2 = assay: Selectivity index, ratio of EC50 for wild type B-Raf in human MIAPaCa2 cells to IC50 for B-Raf V600E mutant in human A375 cells; assay type: cell-based
[3] = molecular target: T2, Serine/threonine-protein kinase B-raf; assay: Inhibition of wild type B-Raf in human MIAPaCa2 cells assessed as reduction in ERK phosphorylation preincubated for 1 hr by Western blot method; assay type: cell-based, MIA PaCa-2
[4] = molecular target: T1, Serine/threonine-protein kinase B-raf; assay: Inhibition of B-Raf V600E mutant in human A375 cells assessed as ERK phosphorylation preincubated for 1 hr by Western blot method; assay type: cell-based, A-375

T1 sequence (P15056 2-766 V600E limits assumed): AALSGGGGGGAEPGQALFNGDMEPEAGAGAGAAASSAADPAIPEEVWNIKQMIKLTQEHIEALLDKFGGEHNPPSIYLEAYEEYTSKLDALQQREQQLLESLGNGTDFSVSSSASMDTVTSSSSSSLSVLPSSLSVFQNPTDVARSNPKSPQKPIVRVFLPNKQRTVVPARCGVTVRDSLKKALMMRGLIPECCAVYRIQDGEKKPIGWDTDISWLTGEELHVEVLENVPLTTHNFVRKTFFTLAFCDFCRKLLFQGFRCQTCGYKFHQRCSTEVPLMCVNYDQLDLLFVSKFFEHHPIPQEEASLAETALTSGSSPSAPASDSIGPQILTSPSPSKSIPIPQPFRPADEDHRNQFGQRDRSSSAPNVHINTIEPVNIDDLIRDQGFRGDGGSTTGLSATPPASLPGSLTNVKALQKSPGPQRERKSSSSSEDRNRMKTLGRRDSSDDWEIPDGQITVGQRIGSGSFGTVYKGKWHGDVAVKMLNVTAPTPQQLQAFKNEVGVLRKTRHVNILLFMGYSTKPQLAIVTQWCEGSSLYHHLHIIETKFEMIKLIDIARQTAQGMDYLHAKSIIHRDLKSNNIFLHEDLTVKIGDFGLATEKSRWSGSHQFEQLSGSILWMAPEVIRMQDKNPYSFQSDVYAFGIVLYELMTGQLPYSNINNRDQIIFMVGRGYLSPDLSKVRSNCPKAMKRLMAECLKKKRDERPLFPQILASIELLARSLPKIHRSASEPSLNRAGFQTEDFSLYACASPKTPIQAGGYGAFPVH
T2 sequence (P15056 whole entry): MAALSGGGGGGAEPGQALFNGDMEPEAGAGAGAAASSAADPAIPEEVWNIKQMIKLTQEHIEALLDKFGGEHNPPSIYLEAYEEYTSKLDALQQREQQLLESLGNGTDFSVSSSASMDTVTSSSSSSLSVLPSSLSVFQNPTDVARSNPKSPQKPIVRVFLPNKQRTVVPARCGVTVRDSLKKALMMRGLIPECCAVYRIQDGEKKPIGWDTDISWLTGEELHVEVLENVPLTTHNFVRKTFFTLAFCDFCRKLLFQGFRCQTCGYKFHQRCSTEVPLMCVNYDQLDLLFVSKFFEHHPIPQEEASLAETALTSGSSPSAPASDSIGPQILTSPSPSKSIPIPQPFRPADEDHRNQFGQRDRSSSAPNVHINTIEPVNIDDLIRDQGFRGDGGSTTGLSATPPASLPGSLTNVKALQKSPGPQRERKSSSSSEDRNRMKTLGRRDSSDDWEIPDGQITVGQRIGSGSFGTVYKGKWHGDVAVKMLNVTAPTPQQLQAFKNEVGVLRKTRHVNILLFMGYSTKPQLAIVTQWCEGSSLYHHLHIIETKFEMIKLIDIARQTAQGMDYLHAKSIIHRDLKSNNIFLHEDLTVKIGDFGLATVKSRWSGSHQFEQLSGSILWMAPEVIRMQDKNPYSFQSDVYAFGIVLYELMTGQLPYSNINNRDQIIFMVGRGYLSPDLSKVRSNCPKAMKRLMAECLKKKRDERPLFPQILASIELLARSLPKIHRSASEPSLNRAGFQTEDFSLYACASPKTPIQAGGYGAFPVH

IC50 [1] [nM]	IC50 [2] [nM]	EC50 [3] [nM]	IC50 [4] [nM]	SMILES	Ratio (MIA PaCa-2)
1	1	786	10	O=S(=O)(Nc1ccc(F)c(Nc2ncccc2-c2ncnc3[nH]cnc23)c1F)c1cccnc1	79
16	68	7190	233	O=S(=O)(Nc1ccc(F)c(Nc2ncccc2-c2ncnc3[nH]cnc23)c1F)N1CC[C@@H](O)C1	31
5	26	1480	31	O=S(=O)(Nc1ccc(F)c(Nc2ncccc2-c2ncnc3[nH]cnc23)c1F)C1CCOC1 (stereo not given)	48
14	66	1540	45	CC(C)S(=O)(=O)Nc1ccc(F)c(Nc2ncccc2-c2ncnc3[nH]cnc23)c1F	34
57	165	9910	603	CCN(CC)S(=O)(=O)Nc1ccc(F)c(Nc2ncccc2-c2ncnc3[nH]cnc23)c1F	16
3	10	873	12	O=S(=O)(Nc1ccc(F)c(Nc2ncccc2-c2ncnc3[nH]cnc23)c1F)c1ccccc1F	73
3	10	713	40	O=S(=O)(CC(F)(F)F)Nc1ccc(F)c(Nc2ncccc2-c2ncnc3[nH]cnc23)c1F	18
0.2	1	807	6	O=S(=O)(Nc1ccc(F)c(Nc2ncccc2-c2ncnc3[nH]cnc23)c1F)c1cn[nH]c1	135
8	26	2140	33	O=S(=O)(CC1CC1)Nc1ccc(F)c(Nc2ncccc2-c2ncnc3[nH]cnc23)c1F	65
1	0.5	402	7	O=S(=O)(Nc1ccc(F)c(Nc2ncccc2-c2ncnc3[nH]cnc23)c1F)c1cccs1	57
3	4	1510	15	O=S(=O)(Nc1ccc(F)c(Nc2ncccc2-c2ncnc3[nH]cnc23)c1F)c1cccc(F)c1	101
> 1000	> 1000		1000	O=S(=O)(Nc1ccc(F)c(Nc2ncccc2-c2ncnc3[nH]cnc23)c1F)N1CCNCC1	
15	38	1220	65	O=S(=O)(Nc1ccc(F)c(Nc2ncccc2-c2ncnc3[nH]cnc23)c1F)N1CCCCC1	19
21	41	7940	177	O=S(=O)(Nc1ccc(F)c(Nc2ncccc2-c2ncnc3[nH]cnc23)c1F)c1ccccn1	45
41	132	2070	173	O=S(=O)(Nc1ccc(F)c(Nc2ncccc2-c2ncnc3[nH]cnc23)c1F)C1CC1	12
216			> 1000	Cc1n[nH]c(C)c1S(=O)(=O)Nc1ccc(F)c(Nc2ncccc2-c2ncnc3[nH]cnc23)c1F	
62	102	3580	293	O=S(=O)(Nc1ccc(F)c(Nc2ncccc2-c2ncnc3[nH]cnc23)c1F)N1CCOCC1	12
36	83	5650	242	O=S(=O)(Nc1ccc(F)c(Nc2ncccc2-c2ncnc3[nH]cnc23)c1F)c1ccc(F)cc1	23

IC50 [1] [nM]	IC50 [2] [nM]	EC50 [3] [nM]	IC50 [4] [nM]	SMILES	Ratio (MIA PaCa-2)
22	157	1780	87	CCN(C)S(=O)(=O)Nc1ccc(F)c(Nc2ncccc2-c2ncnc3[nH]cnc23)c1F	20
7	38	778	27	CCC(C)S(=O)(=O)Nc1ccc(F)c(Nc2ncccc2-c2ncnc3[nH]cnc23)c1F (stereo not given)	29
18	112	8090	130	CCCC(C)S(=O)(=O)Nc1ccc(F)c(Nc2ncccc2-c2ncnc3[nH]cnc23)c1F (stereo not given)	62
2	21	1800	11	O=S(=O)(Nc1ccc(F)c(Nc2ncccc2-c2ncnc3[nH]cnc23)c1F)C1CCCC1	164
8	19	2220	710	Cn1cc(S(=O)(=O)Nc2ccc(F)c(Nc3ncccc3-c3ncnc4[nH]cnc34)c2F)cn1	3
1	2	783	31	O=S(=O)(Nc1ccc(F)c(Nc2ncccc2-c2ncnc3[nH]cnc23)c1F)c1nccs1	25
4	46	1790	41	O=S(=O)(Nc1ccc(F)c(Nc2ncccc2-c2ncnc3[nH]cnc23)c1F)C1CCC1	44
31	179		356	O=S(=O)(Nc1ccc(F)c(Nc2ncccc2-c2ncnc3[nH]cnc23)c1F)C1CCOCC1	
6	5	202	63	CC(C)(C)CS(=O)(=O)Nc1ccc(F)c(Nc2ncccc2-c2ncnc3[nH]cnc23)c1F	3
186	111	5080	> 1000	O=S(=O)(Cc1ccccc1)Nc1ccc(F)c(Nc2ncccc2-c2ncnc3[nH]cnc23)c1F	
7	17	2290	28	O=S(=O)(Nc1ccc(F)c(Nc2ncccc2-c2ncnc3[nH]cnc23)c1F)c1ccccc1	82
6	16	1450	17	CC(C)CS(=O)(=O)Nc1ccc(F)c(Nc2ncccc2-c2ncnc3[nH]cnc23)c1F	85
360	412	6690	356	CS(=O)(=O)Nc1ccc(F)c(Nc2ncccc2-c2ncnc3[nH]cnc23)c1F	19
9	12	936	24	CCCS(=O)(=O)Nc1ccc(F)c(Nc2ncccc2-c2ncnc3[nH]cnc23)c1F	39
2	31	2070	44	O=S(=O)(Nc1ccc(F)c(Nc2ncccc2-c2ncnc3[nH]cnc23)c1F)N1CCCC1	47
9	122		201	O=S(=O)(Nc1ccc(F)c(Nc2ncccc2-c2ncnc3[nH]cnc23)c1F)N1CC[C@H](O)C1	
18	51	4370	40	O=S(=O)(Nc1ccc(F)c(Nc2ncccc2-c2ncnc3[nH]cnc23)c1F)C1CCCCC1	109

Source: ChEMBL document CHEMBL3797029, “Purinylpyridinylamino-based DFG-in/αC-helix-out B-Raf inhibitors: Applying mutant versus wild-type B-Raf selectivity indices for compound profiling” (Bioorg Med Chem, 2016)
